From the METLIN SMRT retention time set (Domingo-Almenara et al. 2019)

Experiment: gradient 5% acetonitrile 3 min, to 50% in 2 min, to 85% in 15 min, held 3 min, 100 µL/min
Conditions: column: Zorbax Extend-C18 2.1 x 50 mm; eluents: water / acetonitrile, 0.1% formic acid
Method in brief: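 Standards, all pure, were combined into mixtures of ~100 molecules and run at 100 μL/min on a Zorbax Extend-C18 column (2.1 × 50 mm, 1.8 μm) with water and acetonitrile, each containing 0.1% formic acid. A coupled quadrupole time-of-flight mass spectrometer operated in positive and negative ionization mode. Retention time values come from computationally picked adduct peaks, each inspected manually.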

RP-LC retention time | Structure (SMILES)
814 s | Cc1nc(-c2nc(-c3cccs3)cs2)cn1CC(=O)Nc1cccc(F)c1
593 s | CC(C)NC(=O)CN1CCN(c2ncc(C(=O)NCc3ccccc3)c(N)n2)CC1
810 s | COc1cccc(-c2noc(Cn3ccn(-c4ccccc4OC)c(=O)c3=O)n2)c1
1410 s | COc1cccc(-c2nc(-c3ccc4oc(-c5ccccc5)nc4c3)no2)c1OC
876 s | CCOCCCNC(=O)c1c(N)n(-c2ccc(C(C)=O)cc2)c2nc3ccccc3nc12
968 s | CCCOc1nc2ccccc2nc1N1CCCC(C(=O)Nc2ccc(NC(C)=O)cc2)C1 (stereo unspecified)
1130 s | O=C(CCC(=O)OCc1ccc(Br)cc1)Nc1nc(-c2ccccc2)cs1
1110 s | Cc1sc(-c2cc(C(F)(F)F)[nH]n2)cc1S(=O)(=O)N1CCCCCC1
695 s | COc1cccc(CNC2=NCCNC23CCN(S(=O)(=O)c2ccc(F)cc2)CC3)c1
907 s | Cc1ccc(CNc2c(-c3ccc(C(C)C)cc3)nc3ncccn23)cc1
860 s | O=C(NCC1CCCO1)C1CCCN(c2nccnc2Sc2ccccc2)C1 (stereo unspecified)
755 s | COc1cccc(C(=O)Nc2nnc(SC)s2)c1
1040 s | O=S(=O)(Nc1ccc(-c2noc(COc3ccc(F)cc3)n2)cc1)c1cccs1
641 s | CN(C)c1ncncc1N1CCC(C(=O)N2CCN(c3ccc(F)cc3)CC2)CC1
1190 s | CC1CCN(S(=O)(=O)c2ccc(-c3cc(C(F)(F)F)on3)o2)CC1
771 s | Fc1ccccc1CN1CCc2nc(N3CCN(c4ccccc4F)CC3)ncc2C1
652 s | CCn1c(CNC(=O)C2CCC2)nc2c1CN(C(=O)Cc1ccc(Cl)cc1)CC2
977 s | Cc1cccc(CS(=O)(=O)N2CC(c3nc(Cc4ccccc4)no3)C2)c1
693 s | O=C(NCCCn1c(-c2ccncc2)nc2cccnc21)Nc1ccc(F)c(Cl)c1
877 s | COc1cc(OC)c(NC(=O)N2CCN(c3ccc(=O)n(-c4ccc(C)cc4)n3)CC2)cc1Cl
952 s | COc1cc(NC(=O)c2cnc3c(c2)c(=O)n(C)c(=O)n3-c2ccc(C)cc2)cc(OC)c1
996 s | COc1ccc(-c2noc(Cc3nnc(-c4ccc(C)c(F)c4)o3)n2)cc1OC

RP-LC retention time | Structure (SMILES)
904 s | CNC(=O)N1CCCC(c2cccc(C(=O)N3CCN(c4ccccc4Cl)CC3)c2)C1 (stereo unspecified)
619 s | O=C(C1CCC(=O)N1S(=O)(=O)c1ccccc1)N1CCN(C2CCCCC2)CC1 (stereo unspecified)
691 s | CCC(C)NC(=O)c1ccc2c(c1)CC(=O)N2CC (stereo unspecified)
634 s | CN1CCN(C(=O)Nc2ccc([N+](=O)[O-])cc2)CC1
688 s | O=C(NC1CC1)c1ccc(-c2ccsc2)nc1
563 s | CCn1c(=O)c(=O)n(CC(=O)N2CCN(c3ccccn3)CC2)c2ccccc21
685 s | CCOC(=O)c1ccc(NC(=O)Cn2nc3n(c2=O)CCCCC3)cc1
666 s | CCOc1ccc(NC(=O)Cn2c(CC)nc3c(c2=O)CN(Cc2ccccc2)CC3)cc1
852 s | O=C(CCCc1ccccc1)N1CCN2CCS(=O)(=O)N(C3CC3)C(=O)C2C1 (stereo unspecified)
1050 s | O=C(C1CCN(S(=O)(=O)c2ccc(-c3noc(C4CC4)n3)cc2)CC1)N1CCc2ccccc2C1
800 s | CC(=O)CC(=O)Nc1ccc2ccccc2c1
882 s | CCC(NC(=O)c1cnc(-c2ccccc2)nc1-c1ccncc1)c1ccc(OC)cc1 (stereo unspecified)
625 s | O=C(CN1C(=O)C(C(=O)N2CCCC2)Sc2ccccc21)N1CCN(Cc2ccccc2)CC1 (stereo unspecified)
817 s | Cc1c(Cl)cccc1NC(=O)Cn1c(C)nc2onc(C)c2c1=O
1010 s | O=C(CCn1nnc2cc(-c3noc(-c4ccc(Cl)cc4)n3)ccc21)N1CCCC1
876 s | COc1ccc(CNC(=O)C2=C3CCCN3c3ccc(F)cc3S2(=O)=O)cc1
1000 s | O=C(Cn1nc(N2CCCC2)c2ccccc2c1=O)Nc1ccc(F)c(Cl)c1
848 s | Cc1nn2c(CNS(=O)(=O)c3cc(F)ccc3F)c(-c3ccccc3)nc2s1
793 s | CCn1ncc(NC(=O)COc2ccc(F)cc2)c(N2CCCCC2)c1=O
750 s | Cc1ccc(Nc2c(-c3ccccc3)nc3ccc(C)cn23)cc1
645 s | COc1ccccc1C(CNC(=O)c1cc(=O)c2c(C)cc(C)cc2o1)N(C)C (stereo unspecified)
1010 s | Cc1nc(-c2csc(S(=O)(=O)N3CCCC(C(=O)Nc4ccc(F)cc4Cl)C3)c2)no1 (stereo unspecified)

RP-LC retention time | Structure (SMILES)
619 s | CCC1CN(C(=O)N2CCC(C(=O)NCCN3CCN(C)CC3)CC2)c2cc(C)ccc2O1 (stereo unspecified)
958 s | O=C(C1=CN(c2ccc(Oc3ccccc3)cc2)c2cc(F)ccc2S1(=O)=O)N1CCOCC1
565 s | CC(=O)N1CC[C@]2(CO)CN(C(=O)c3ccsc3)C[C@@H]2C1
955 s | Cc1cc2nn(CC(=O)Nc3cccc(C(C)C)c3)c(=O)n2c(-c2ccccc2)n1
869 s | COc1ccc(-c2cn3c(CC(=O)Nc4ccc(C(F)(F)F)cc4)csc3n2)cc1
675 s | COc1cccc(CNC(=O)C2CCCN(c3cnc4nccnc4c3)C2)c1OC (stereo unspecified)
1010 s | Cc1c(C(=O)N2CCCC2)cnn1-c1ccc(-c2nc(C(C)(C)C)no2)cn1
1020 s | Cc1cccc(-c2nnc(-c3ccc(Cl)c(S(=O)(=O)N4CCOCC4)c3)o2)c1
997 s | CCSc1nc2ccc(NS(=O)(=O)c3ccccc3)cc2s1
1190 s | CCn1c(=O)oc2cc(-c3noc(-c4ccc(F)cc4Cl)n3)ccc21
834 s | Cc1sc2ccn(C)c(=O)c2c1C(=O)NCc1cccc(Br)c1
1260 s | CCOc1ccc(-c2nc(-c3ccc4c(c3)oc(=O)n4C(C)C)no2)cc1OCC
693 s | Cn1nc(C(=O)N2CCCC(C(=O)NC3CC3)C2)c2c1CCN(C(=O)Cc1ccc(Cl)cc1)C2 (stereo unspecified)
616 s | O=C(c1ccc(Br)cc1)N1CCN(C(=O)c2cc(-c3ccncc3)n[nH]2)CC1
1370 s | COc1ccc(-n2c(=O)c(C(=O)Nc3ccc(F)c(Cl)c3)c(O)c3cccnc32)cc1
845 s | CCn1cc(S(=O)(=O)NCc2cccc(C)c2)c2cccnc21
922 s | O=C([C@@H]1C[C@H](Oc2ccccc2)CN1C(=O)CCC1CCCC1)N1CCCC1
601 s | O=C(COc1cccc(C(F)(F)F)c1)NCCCn1nc(-c2ccncc2)ccc1=O
727 s | CCOc1ccc(NC(=O)N2CCN(c3cc(C)nc(Nc4ccc(C)cc4)n3)CC2)cc1
1130 s | COc1cccc(C2Cn3nnc(-c4nc(-c5cccc(F)c5)no4)c3CO2)c1 (stereo unspecified)
859 s | Cc1cc(C)cc(Oc2nccn3c(=O)n(CC(=O)NC(C)(C)C)nc23)c1
791 s | CS(=O)(=O)c1ccc(C(=O)Nc2cccc(Cl)c2Cl)cc1

RP-LC retention time | Structure (SMILES)
998 s | COc1ccccc1NC(=O)Cn1c(C)cc(-c2nnc(-c3ccc(F)cc3)o2)c1C
956 s | O=C(Nc1cc(-c2ccccn2)no1)c1nccc2ccccc12
563 s | Cc1ccc(Nc2cc(N3CCN(C(=O)COc4ncccn4)CC3)nc(C)n2)cc1
1220 s | Cn1nccc1-c1cccc(-c2noc(-c3cc(F)cc(F)c3)n2)c1
651 s | N#Cc1cccc(C(=O)NC2CCN(C(=O)C3CC3)C2)c1 (stereo unspecified)
1170 s | CC1CCN(c2nc3c(c(=O)n(Cc4ccccc4Cl)c(=O)n3C)n2C)CC1
638 s | CCc1cccc(NC(=O)Cc2cn3cc(F)ccc3n2)c1
545 s | CN(C)c1ccc(CNC(=O)C2CCN(c3cncnc3N3CCOCC3)CC2)cc1
578 s | Cc1cccc(Nc2ccc(N3CCN(C(=O)c4ccc(Br)o4)CC3)nn2)n1
772 s | CC[C@@H](Nc1c(Nc2cccc(C(=O)N(C)C)c2O)c(=O)c1=O)c1cc(C(C)C)co1
574 s | COc1ccccc1-n1nnc(C(=O)NCc2nc3ccccc3n2C)c1-c1ccccn1
887 s | CCCCS(=O)(=O)c1cc2c(cc1NC(=O)c1ccccc1)n(C)c(=O)n2C
1220 s | Cc1cccc(-c2noc(C3CCCN3S(=O)(=O)c3ccc(F)c(Cl)c3)n2)c1 (stereo unspecified)
713 s | Cc1ccc(NS(=O)(=O)c2cc(-c3[nH]ncc3C(=O)N3CCOCC3)oc2C)cc1C
704 s | CCN(CC)C(=O)c1ccc(-c2nc3cc(NS(=O)(=O)c4cc(F)ccc4F)ccc3n2C)cc1
1010 s | CN1C(=O)COc2ccc(-c3csc(NC(=O)COc4ccc(Cl)cc4)n3)cc21
819 s | Cc1cc(C)cc(NC(=O)Cn2nc(C(=O)N3CCOCC3)c3ccccc32)c1
675 s | O=C(NC1CCS(=O)(=O)C1)c1ccc(C(=O)c2ccccc2)cc1 (stereo unspecified)
618 s | Cc1ccc(N2CCC(NC(=O)Nc3cc(C)ccc3C)C2=O)cc1 (stereo unspecified)

Structure (SMILES) | RP-LC retention time
COc1cccc(-c2c(C(=O)O)nnn2Cc2ccccc2F)c1 | 776 s
